This is an account of results in paper PMC6107088 (Inorganic chemistry, 2018).

In data set [1] the target is Lys80 (UniProt position 86, IPGTGKAFGGL). Description: UV-vis. Conditions: ferric protein; Lys80/His18-ligated haem converting to H2O/His-ligated haem; cited from earlier work.
Data set [2] addresses yeast iso-1 cytochrome c WT* (pseudo-wild-type), ferric (Saccharomyces cerevisiae, UniProt P00044, C108S/K78A). Briefly: equilibrium titration, Soret absorbance at […] and […] nm, one-site fit. It counts as binding.
Data set [3] addresses yeast iso-1 cytochrome c WT* (pseudo-wild-type), ferric (Saccharomyces cerevisiae, UniProt P00044, C108S/K78A/K79A/K85G/M86K). Described as above. It counts as binding.

Sequence of yeast iso-1 cytochrome c WT* (pseudo-wild-type), ferric (Saccharomyces cerevisiae, UniProt P00044, C108S/K78A) (P00044 2-109 K78A/C108S): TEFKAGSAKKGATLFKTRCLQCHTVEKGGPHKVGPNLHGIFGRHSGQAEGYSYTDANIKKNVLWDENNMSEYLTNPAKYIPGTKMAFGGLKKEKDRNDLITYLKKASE
Sequence of yeast iso-1 cytochrome c WT* (pseudo-wild-type), ferric (Saccharomyces cerevisiae, UniProt P00044, C108S/K78A/K79A/K85G/M86K) (P00044 2-109 K78A/K79A/K85G/M86K/C108S): as the sequence (P00044 2-109 K78A/C108S) above, with K78A, K84G, M85K counted along it

The pKa is the negative logarithm of the acid dissociation constant. For “iso-1 cytochrome c, M80K# (K73A/K79G/M80K in WT* background) (Saccharomyces cerevisiae; K72A;K73A;K79G;M80K;C102S)”, the pKa in data set [1] is 4.9 ± 0.2.

A word on the Kd: it is the concentration at which binding is half-saturated. Consider `c1c[nH]cn1` [imidazole], for which the values for the equilibrium dissociation constant (Kd) in data set [2] and in data set [3] were 2780 µM and 2330 µM, respectively.
